From US6489469B1, “Method for storing or transporting erythritol solution” (Nikken Chemicals Co., Ltd., priority 1999, dated 2002)

Experiments:
[1] = test system: Bacillus stearothermophilus IFO 12550; assay: Viable Count of Bacillus stearothermophilus IFO 12550 in Erythritol Solution (heat resistant bacteria); assay type: cell-based; settings: for The Number of Viable Cell: 75° C.
Protocol: Erythritol solutions of respective concentrations in the range of from 30 to 70% were prepared. To these was inoculated Bacillus stearothermophilus IFO 12550 as a heat resistant bacterium in a population (concentration) of 10,000 cells/mL or more.
After the inoculation, the solutions were stored at 50, 60 or 75° C., respectively, for 56 days and the number of viable cell was determined daily. The determination of the number of viable cell was performed by in the same manner as in Example 1.

[2] = test system: Penicillium funiculosum IFO 6345; assay: Viable Count of Penicillium funiculosum IFO 6345 in Erythritol Solution; assay type: cell-based
Protocol: Erythritol solutions of respective concentrations in the range of from 30 to 60% were prepared. To these were inoculated Staphylococcus aureus IFO 13276, Bacillus subtilis IFO 3134, and Escherichia coli IFO 3972 as bacteria, Candida albicans IFO 1549 and Saccharomyces cerevisiae ATCC 9763 as yeasts, Aspergillus niger IFO 6342, Aspergillus flavus IFO 6343, and Penicillium funiculosum IFO 6345 as fungi, respectively, in a population (concentration) of 10,000 cells/mL or more. After the inoculation, the solutions were stored at 30, 37, 45, 50, or 60° C., respectively, for 56 days and the number of viable cell was determined daily. The determination of the number of viable cell was performed by a method of coating 0.1 mL of appropriately diluted sample cultivation on an agar plate and cultivating and counting the number of viable cell (the number of colony) that grew after the cultivation.

`OC[C@@H](O)[C@@H](O)CO` [Erythritol Solution, erythritol] was tested, and the “The Number of Viable Cell” value ([1]; 60% w/w, Day 3) was 170 cells/mL, the “The Number of Viable Cell” value ([1]; 60% w/w, Day 7) was 480 cells/mL and the “The Number of Viable Cell” value ([1]; 60% w/w, Day 14) was 0 cells/mL. The “The Number of Viable Cell” value ([1]; 60% w/w, Day 28) was 0 cells/mL, the “The Number of Viable Cell” value ([1]; 60% w/w, Day 56) was 0 cells/mL and the “The Number of Viable Cell” value ([1]; 70% w/w, Day 0) was 10000 or more cells/mL. The “The Number of Viable Cell” value ([1]; 70% w/w, Day 3) was 140 cells/mL, the “The Number of Viable Cell” value ([1]; 70% w/w, Day 7) was 210 cells/mL and the “The Number of Viable Cell” value ([1]; 70% w/w, Day 14) was 0 cells/mL. The “The Number of Viable Cell” value ([1]; 70% w/w, Day 28) was 0 cells/mL, the “The Number of Viable Cell” value ([1]; 70% w/w, Day 56) was 0 cells/mL and the “growth of the bacteria” value ([1]; all the concentrations, temperature of 50° C. or more) was “inhibited”. The “The Number of Viable Cell” value ([2]; 37° C., 30% w/w, Day 0) was at least 10000 cells/mL, the “The Number of Viable Cell” value ([2]; 37° C., 30% w/w, Day 3) was at least 10000 cells/mL and the “The Number of Viable Cell” value ([2]; 37° C., 30% w/w, Day 7) was at least 10000 cells/mL. For the same compound, the “The Number of Viable Cell” value ([2]; 37° C., 30% w/w, Day 14) was at least 10000 cells/mL, the “The Number of Viable Cell” value ([2]; 37° C., 30% w/w, Day 28) was at least 10000 cells/mL and the “The Number of Viable Cell” value ([2]; 37° C., 30% w/w, Day 56) was at least 10000 cells/mL. The “The Number of Viable Cell” value ([2]; 37° C., 40% w/w, Day 0) was at least 10000 cells/mL, the “The Number of Viable Cell” value ([2]; 37° C., 40% w/w, Day 3) was at least 10000 cells/mL and the “The Number of Viable Cell” value ([2]; 37° C., 40% w/w, Day 7) was at least 10000 cells/mL. For the same compound, the “The Number of Viable Cell” value ([2]; 37° C., 40% w/w, Day 14) was at least 10000 cells/mL, the “The Number of Viable Cell” value ([2]; 37° C., 40% w/w, Day 28) was at least 10000 cells/mL and the “The Number of Viable Cell” value ([2]; 37° C., 40% w/w, Day 56) was at least 10000 cells/mL. For the same compound, the “The Number of Viable Cell” value ([2]; 45° C., 30% w/w, Day 0) was at least 10000 cells/mL, the “The Number of Viable Cell” value ([2]; 45° C., 30% w/w, Day 3) was 370 cells/mL and the “The Number of Viable Cell” value ([2]; 45° C., 30% w/w, Day 7) was 0 cells/mL. The “The Number of Viable Cell” value ([2]; 45° C., 30% w/w, Day 14) was 0 cells/mL, the “The Number of Viable Cell” value ([2]; 45° C., 30% w/w, Day 28) was 0 cells/mL and the “The Number of Viable Cell” value ([2]; 45° C., 30% w/w, Day 56) was 0 cells/mL. For the same compound, the “The Number of Viable Cell” value ([2]; 45° C., 40% w/w, Day 0) was at least 10000 cells/mL, the “The Number of Viable Cell” value ([2]; 45° C., 40% w/w, Day 3) was 750 cells/mL and the “The Number of Viable Cell” value ([2]; 45° C., 40% w/w, Day 7) was 0 cells/mL. For the same compound, the “The Number of Viable Cell” value ([2]; 45° C., 40% w/w, Day 14) was 0 cells/mL, the “The Number of Viable Cell” value ([2]; 45° C., 40% w/w, Day 28) was 0 cells/mL and the “The Number of Viable Cell” value ([2]; 45° C., 40% w/w, Day 56) was 0 cells/mL. The “The Number of Viable Cell” value ([2]; 45° C., 50% w/w, Day 0) was at least 10000 cells/mL, the “The Number of Viable Cell” value ([2]; 45° C., 50% w/w, Day 3) was 1260 cells/mL and the “The Number of Viable Cell” value ([2]; 45° C., 50% w/w, Day 7) was 0 cells/mL. For the same compound, the “The Number of Viable Cell” value ([2]; 45° C., 50% w/w, Day 14) was 0 cells/mL, the “The Number of Viable Cell” value ([2]; 45° C., 50% w/w, Day 28) was 0 cells/mL and the “The Number of Viable Cell” value ([2]; 45° C., 50% w/w, Day 56) was 0 cells/mL. For the same compound, the “The Number of Viable Cell” value ([2]; 50° C., 30% w/w, Day 0) was at least 10000 cells/mL, the “The Number of Viable Cell” value ([2]; 50° C., 30% w/w, Day 3) was 0 cells/mL and the “The Number of Viable Cell” value ([2]; 50° C., 30% w/w, Day 7) was 0 cells/mL. For the same compound, the “The Number of Viable Cell” value ([2]; 50° C., 30% w/w, Day 14) was 0 cells/mL, the “The Number of Viable Cell” value ([2]; 50° C., 30% w/w, Day 28) was 0 cells/mL and the “The Number of Viable Cell” value ([2]; 50° C., 30% w/w, Day 56) was 0 cells/mL. For the same compound, the “The Number of Viable Cell” value ([2]; 50° C., 40% w/w, Day 0) was at least 10000 cells/mL, the “The Number of Viable Cell” value ([2]; 50° C., 40% w/w, Day 3) was 0 cells/mL and the “The Number of Viable Cell” value ([2]; 50° C., 40% w/w, Day 7) was 0 cells/mL. For the same compound, the “The Number of Viable Cell” value ([2]; 50° C., 40% w/w, Day 14) was 0 cells/mL, the “The Number of Viable Cell” value ([2]; 50° C., 40% w/w, Day 28) was 0 cells/mL and the “The Number of Viable Cell” value ([2]; 50° C., 40% w/w, Day 56) was 0 cells/mL. The “The Number of Viable Cell” value ([2]; 50° C., 50% w/w, Day 0) was at least 10000 cells/mL, the “The Number of Viable Cell” value ([2]; 50° C., 50% w/w, Day 3) was 0 cells/mL and the “The Number of Viable Cell” value ([2]; 50° C., 50% w/w, Day 7) was 0 cells/mL. For the same compound, the “The Number of Viable Cell” value ([2]; 50° C., 50% w/w, Day 14) was 0 cells/mL, the “The Number of Viable Cell” value ([2]; 50° C., 50% w/w, Day 28) was 0 cells/mL and the “The Number of Viable Cell” value ([2]; 50° C., 50% w/w, Day 56) was 0 cells/mL. The “growth of the microbes” value ([2]; temperature of 50° C. or more) was “prevented from growing” and the “time after which microbes died” value ([2]; temperature of 50° C. or more) was 3 days.
